Earlier results as cited in patent US11154542B2, “Nail lacquer composition containing ciclopirox” (GENUONE SCIENCES INC., priority 2015, dated 2021).

System: fungus
Conditions: laboratory researches

In the case of `CCC(C)(C)c1ccc(CC(C)CN2C[C@@H](C)O[C@@H](C)C2)cc1` (some centres unmarked) [amorolfine, Amorolfine], the antifungal activity is given as “low antifungal activity” and the “formation of spores that resist antifungal agents” value is given as “effective in reducing the formation of spores”.
